Measurements: US12723023B2, “Ionizable cationic lipids for RNA delivery” (Arcturus Therapeutics, Inc., priority 2021, dated 2026)

Experiments:
[1] = test system: hEPO; experiment: hEPO mRNA expression evaluation (hEPO-LNPs, serum hEPO by ELISA); type: in vivo, Balb/c mice; settings: serum after 6 hr; for EPO exprssn (ng/mL) 0.03 mpk: 0.03 mpk hEPO-LNP intravenously; for EPO exprssn (ng/mL) 0.1 mpk: 0.1 mpk hEPO-LNP intravenously
Method: Lipid formulations comprising a hEPO mRNA below were evaluated for their ability to express hEPO in vivo according to the protocol of this example. All animal experiments were conducted using institutionally-approved protocols (IACUC). In this protocol, female Balb/c mice at least 6-8 weeks of age were purchased from Charles River Laboratory. The mice were intravenously injected with hEPO-LNPs via the tail vein with one of two dose levels of hEPO (0.1 and 0.03 mg/kg). After 6 hr, blood was collected with serum separation tubes, and the serum was isolated by centrifugation. Serum hEPO levels were then measured using an ELISA assay (Human Erythropoietin Quantikine IVD ELISA Kit, R&D Systems, Minneapolis, MD).

[2] = In vivo biodegradability assay (lipid concentration in mouse liver by LC-MS); design: species or system mice; settings: BLOQ: below level of quantification; for In vivo degradability (ng tissue) at 48 h 0.1 mpk: Table 1, 0.1 mpk; for In vivo degradability (ng/tissue) at 48 h 0.1 mpk: Table 2, 0.1 mpk
Method: In vivo biodegradability assay was performed to assess the biodegradability of lipids in the LNP. Briefly, mice were injected with either 0.1 or 0.03 mg/Kg dose and after 24 or 48 hours mice livers were collected. To measure the concentration of lipids in the mouse liver, liver samples were homogenized in appropriate buffer in 1-10 dilution and mixed with the same amount of stabilized plasma. The samples were then mixed with organic solvents spiked with internal standard to precipitate proteins. After centrifugation, supernatant was diluted further with organic solvent before sample analysis by LC-MS. In LC-MS analysis, positive electrospray ionization was used, and multiple reaction monitoring (MRM) parameters were set up to specifically target the lipid analyte and internal standard. Calibration standards were prepared in stabilized plasma and mixed with same amount of homogenization buffer before protein precipitation. Quality control samples with known amounts of lipid was prepared in blank liver homogenate to monitor the precision and accuracy of the assay.

[3] = Mouse plasma stability; type: in vitro ADME, CD-1 mouse; settings: 1 μM lipid
Method: Lipid stock solution was prepared by dissolution of the lipid in isopropanol at the concentration of 5 mg/mL. A requisite volume of the lipid-isopropanol solution was then diluted to 100 μM concentration at a total volume of 1.0 mL with in 50:50 (v/v) ethanol/water. Ten microliters of this 100 μM solution was spiked into 1.0 mL of mouse plasma (BioIVT, Cat. No.: MSE00PLNHUNN, CD-1 mouse, anticoagulant: sodium heparin, not filtered) that was pre-warmed to 37° C. and was stirred at 50 rpm with a magnetic stir bar. The starting concentration of lipids in plasma was thus 1 μM. At time points 0, 15, 30, 45, 60 and 120 min, 0.1 mL of the plasma was withdrawn from the reaction mixture and the protein was precipitated by adding 0.9 mL of ice-cold 4:1 (v/v) acetonitrile/methanol with 1 μg/mL of a selected internal standard lipid added. After filtration through a 0.45 micron 96-well filtering plate, the filtrates were analyzed by LC-MS (Thermo Fisher's Vanquish UHPLC-LTQ XL linear ion trap Mass Spectrometer); Waters XBridge BEH Shield RP18 2.5 micron (2.1×100 mm) column with its matching guard column. Mobile phase A was 0.1% formic acid in water, and mobile phase B was 0.1% formic acid in 1:1 (v/v) acetonitrile/methanol. Flow rate was 0.5 ml/min. Elution gradient was: Time 0-1 min: 10% B; 1-6 min: 10%-95% B; 6-8.5 min: 95% B; 8.5-9 min: 95%-10% B; 9-10 min: 10% B. Mass spectrometry was in positive scanning mode from 600-1100 m/z. The peak of the molecular ion of the lipids was integrated in the extracted ion chromatography (XIC) using Xcalibur software (Thermo Fisher). The relative peak area compared to T=0, after normalization by the peak area of the internal standard, was used as the percentage of the lipid remaining at each time point. T1/2 values were calculated using the first-order decay model.

| SMILES | In vivo degradability (ng/tissue) at 48 h 0.03 mpk ([2]; Table 2, 0.03 mpk) | In vivo degradability (ng/tissue) at 48 h 0.1 mpk [2] | Plasma half life % remaining after 2 h ([3]; Table 2, 37° C.) | EPO exprssn (ng/mL) 0.03 mpk ([1]; Table 1) | EPO exprssn (ng/mL) 0.1 mpk ([1]; Table 1) | EPO exprssn (ng/mL) 0.1 mpk ([1]; Table 2) | In vivo degradability (ng/tissue) at 48 h 0.03 mpk ([2]; Table 1, 0.03 mpk) | In vivo degradability (ng tissue) at 48 h 0.1 mpk [2] | Plasma half life % remaining after 2 h ([3]; Table 1, 37° C.) |
| --- | --- | --- | --- | --- | --- | --- | --- | --- | --- |
| CCC1CCC(C(=O)OCC(COC(=O)C2CCC(CC)CC2)OC(=O)CCCN(CCCC(=O)OC(COC(=O)C2CCC(CC)CC2)COC(=O)C2CCC(CC)CC2)C(=O)SCCCN(C)C)CC1 (centres unmarked) [LIPID 16, ((4,4′-((((3-(Dimethylamino)propyl)thio)carbonyl)azanediyl)bis(butanoyl))bis(oxy))bis(propane-2,1,3-triyl) tetrakis(4-ethylcyclohexane-1-carboxylate)] | <340 ng/tissue | <340 ng/tissue | 40% | 2088 ng/mL | 6358 ng/mL | 2088 ng/mL | <340 ng/tissue | <340 ng tissue | 40% |
| CC(CC1CCCCC1)C(=O)OCC(COC(=O)C(C)CC1CCCCC1)OC(=O)CCCN(CCCC(=O)OC(COC(=O)C(C)CC1CCCCC1)COC(=O)C(C)CC1CCCCC1)C(=O)SCCCN(C)C (centres unmarked) [LIPID 17, ((4,4′-((((3-(Dimethylamino)propyl)thio)carbonyl)-azanediyl)bis(butanoyl))bis(oxy))bis(propane-2,1,3-triyl) tetrakis(3-cyclohexyl-2-methylpropanoate)] | BLOQ | BLOQ | 100% | 1082 ng/mL | 1555 ng/mL | 1082 ng/mL | BLOQ | BLOQ |  |
| CCCCCCCCC(=O)OCC(COC(=O)CCCCCCCC)COC(=O)CCCN(CCCC(=O)OCC(COC(=O)CCCCCCCC)COC(=O)CCCCCCCC)C(=O)SCCCN(C)C [LIPID 25, ((4,4′-((((3-(Dimethylamino)propyl)thio)carbonyl)azanediyl)bis(butanoyl))bis(oxy))bis(methylene))bis(propane-2,1,3-triyl) tetranonanoate] | BLOQ | BLOQ | 100% |  |  |  |  |  |  |
| CCCCCCCCC(=O)OCC(COC(=O)CCCCCCCC)COC(=O)CCN(CCC(=O)OCC(COC(=O)CCCCCCCC)COC(=O)CCCCCCCC)C(=O)SCCN(C)C [LIPID 26, ((3,3′-((((2-(Dimethylamino)ethyl)thio)carbonyl)azanediyl)bis(propanoyl))bis(oxy))bis(methylene))bis(propane-2,1,3-triyl) tetranonanoate] | BLOQ | BLOQ | 100% |  |  |  |  |  |  |
| CN(C)CCCSC(=O)N(CCCC(=O)OC(COC(=O)C1CC2CCCCC2C1)COC(=O)C1CC2CCCCC2C1)CCCC(=O)OC(COC(=O)C1CC2CCCCC2C1)COC(=O)C1CC2CCCCC2C1 (centres unmarked) [LIPID 28] | BLOQ | BLOQ | 100% |  |  |  |  |  |  |

Now from value to compound, other results behind:

| In vivo degradability (ng/tissue) at 48 h 0.03 mpk ([2]; Table 2, 0.03 mpk) | In vivo degradability (ng/tissue) at 48 h 0.1 mpk [2] | Plasma half life % remaining after 2 h ([3]; Table 2, 37° C.) | SMILES | EPO exprssn (ng/mL) 0.03 mpk ([1]; Table 1) | EPO exprssn (ng/mL) 0.1 mpk ([1]; Table 1) | EPO exprssn (ng/mL) 0.1 mpk ([1]; Table 2) | In vivo degradability (ng/tissue) at 48 h 0.03 mpk ([2]; Table 1, 0.03 mpk) | In vivo degradability (ng tissue) at 48 h 0.1 mpk [2] | Plasma half life % remaining after 2 h ([3]; Table 1, 37° C.) |
| --- | --- | --- | --- | --- | --- | --- | --- | --- | --- |
| <340 ng/tissue | <340 ng/tissue | 100% | CCC1CCC(C(=O)OCC(C)(COC(=O)CCN(CCC(=O)OCC(C)(COC(=O)C2CCC(CC)CC2)COC(=O)C2CCC(CC)CC2)C(=O)SCCCN(C)C)COC(=O)C2CCC(CC)CC2)CC1 (centres unmarked) [LIPID 22, ((3,3′-((((3-(Dimethylamino)propyl)thio)carbonyl)azanediyl)bis(propanoyl))bis(oxy))bis(methylene)bis(2-methylpropane-2,1,3-triyl) tetrakis(2-(4-ethylcyclohexyl)acetate)] |  |  |  |  |  |  |
| <340 ng/tissue | <340 ng/tissue | 100% | CCCCC(C)(C)CC(=O)OCC(C)(COC(=O)CCN(CCC(=O)OCC(C)(COC(=O)CC(C)(C)CCCC)COC(=O)CC(C)(C)CCCC)C(=O)SCCCN(C)C)COC(=O)CC(C)(C)CCCC [LIPID 23] |  |  |  |  |  |  |
| BLOQ | BLOQ | 100% | CCCCCCCC(=O)OCC(C)(COC(=O)CCCCCCC)COC(=O)CCN(CCC(=O)OCC(C)(COC(=O)CCCCCCC)COC(=O)CCCCCCC)C(=O)SCCCN(C)C [LIPID 24] |  |  |  |  |  |  |
| BLOQ | BLOQ | 100% | CC1CCC(CCC(=O)OCC(COC(=O)CCC2CCC(C)CC2)COC(=O)CCN(CCC(=O)OCC(COC(=O)CCC2CCC(C)CC2)COC(=O)CCC2CCC(C)CC2)C(=O)SCCCN(C)C)CC1 (centres unmarked) [LIPID 27] |  |  |  |  |  |  |
| BLOQ | BLOQ | 100% | CN(C)CCCSC(=O)N(CCCC(=O)OC(COC(=O)C1CCC2CCCC2C1)COC(=O)C1CCC2CCCC2C1)CCCC(=O)OC(COC(=O)C1CCC2CCCC2C1)COC(=O)C1CCC2CCCC2C1 (centres unmarked) [LIPID 30, ((4,4′-((((3-(dimethylamino)propyl)thio)carbonyl)azanediyl)bis(butanoyl))bis(oxy))bis(propane-2,1,3-triyl) tetrakis(octahydro-1H-indene-5-carboxylate)] |  |  |  |  |  |  |
